Measured values: ChEMBL document CHEMBL1122718, “Benzylamines: synthesis and evaluation of antimycobacterial properties” (1984)

Tests used:
Format in all cases: functional
[1] = test system: Mycobacterium tuberculosis; assay: Compound was evaluated for the synergistic effect in combination with rifampicin for the inhibition of Mycobacterium tuberculosis H 37 Ra, using middlebrook 7H9 medium (liquid)
[2] = test system: Mycobacterium tuberculosis; assay: Compound was evaluated for the synergistic effect in combination with tetracycline hydrochloride for the inhibition of Mycobacterium tuberculosis H 37 Ra, using middlebrook 7H9 medium (liquid)
[3] = test system: Mycobacterium tuberculosis; assay: Fractional inhibitory concentration (FIC) was determined for the compound in combination of Ethambutol
[4] = test system: Mycobacterium tuberculosis; assay: Fractional inhibitory concentration (FIC) was determined for the compound in combination of Aminosalicylic acid
[5] = test system: Mycobacterium tuberculosis; assay: Fractional inhibitory concentration (FIC) was determined for the compound in combination of trimethoprim
Mycobacterium marinum = assay: Minimum inhibitory concentration (MIC) of compound against Mycobacterium marinum SN 1254
[6] = test system: Mycobacterium tuberculosis; assay: Compound was evaluated for the synergistic effect in combination with rifampicin for the inhibition of Mycobacterium tuberculosis H 37 Ra, using Lowenstein-Jensen medium (solid)
[7] = test system: Mycobacterium tuberculosis; assay: Compound was evaluated for the synergistic effect in combination with tetracycline hydrochloride for the inhibition of Mycobacterium tuberculosis H 37 Ra, using Lowenstein-Jensen medium (solid)
[8] = test system: Mycobacterium tuberculosis; assay: Fractional inhibitory concentration (FIC) was determined for the compound in combination of Streptomycin sulfate
[9] = test system: Mycobacterium tuberculosis; assay: Fractional inhibitory concentration (FIC) was determined for the compound in combination of Capreomycin
[10] = test system: Mycobacterium tuberculosis; assay: Compound was evaluated for the synergistic effect in combination with dapsone for the inhibition of Mycobacterium tuberculosis H 37 Ra, using middlebrook 7H9 medium (liquid)
[11] = test system: Mycobacterium tuberculosis; assay: Minimum inhibitory concentration (MIC) of compound against Mycobacterium tuberculosis H 37 Rv
[12] = test system: Mycobacterium tuberculosis; assay: Compound was evaluated for the synergistic effect in combination with ethionamide for the inhibition of Mycobacterium tuberculosis H 37 Ra, using Lowenstein-Jensen medium (solid)
[13] = test system: Mycobacterium tuberculosis; assay: Fractional inhibitory concentration (FIC) was determined for the compound in combination of Benzaldehyde thiosemicarbazone
[14] = test system: Mycobacterium tuberculosis; assay: Compound was evaluated for the synergistic effect in combination with isoniazid for the inhibition of Mycobacterium tuberculosis H 37 Ra, using Lowenstein-Jensen medium (solid)
[15] = test system: Mycobacterium tuberculosis; assay: Compound was evaluated for the synergistic effect in combination with trimethoprim for the inhibition of Mycobacterium tuberculosis H 37 Ra, using middlebrook 7H9 medium (liquid)
[16] = test system: Mycobacterium tuberculosis; assay: Compound was evaluated for the synergistic effect in combination with aminosalicylic acid for the inhibition of Mycobacterium tuberculosis H 37 Ra, using Lowenstein-Jensen medium (solid)
[17] = test system: Mycobacterium tuberculosis; assay: Compound was evaluated for the synergistic effect in combination with isoniazid for the inhibition of Mycobacterium tuberculosis H 37 Ra, using middlebrook 7H9 medium (liquid)
[18] = test system: Mycobacterium tuberculosis; assay: Fractional inhibitory concentration (FIC) was determined for the compound in combination of Ethionamide
Mycobacterium lufu = assay: Minimum inhibitory concentration (MIC) of compound against Mycobacterium lufu L 209
[19] = test system: Mycobacterium tuberculosis; assay: Compound was evaluated for the synergistic effect in combination with ethambutol for the inhibition of Mycobacterium tuberculosis H 37 Ra, using Lowenstein-Jensen medium (solid)
Mycobacterium avium = assay: Minimum inhibitory concentration (MIC) of compound against Mycobacterium avium SN 304
[20] = test system: Mycobacterium tuberculosis; assay: Compound was evaluated for the synergistic effect in combination with cycloserine for the inhibition of Mycobacterium tuberculosis H 37 Ra, using middlebrook 7H9 medium (liquid)
[21] = test system: Mycobacterium tuberculosis; assay: Compound was evaluated for the synergistic effect in combination with ethambutol for the inhibition of Mycobacterium tuberculosis H 37 Ra, using middlebrook 7H9 medium (liquid)
[22] = test system: Mycobacterium tuberculosis; assay: Compound was evaluated for the synergistic effect in combination with streptomycin sulfate for the inhibition of Mycobacterium tuberculosis H 37 Ra, using middlebrook 7H9 medium (liquid)
[23] = test system: Mycobacterium tuberculosis; assay: Compound was evaluated for the synergistic effect in combination with ethionamide for the inhibition of Mycobacterium tuberculosis H 37 Ra, using middlebrook 7H9 medium (liquid)
[24] = test system: Mycobacterium tuberculosis; assay: Fractional inhibitory concentration (FIC) was determined for the compound in combination of Rifampicin
[25] = test system: Mycolicibacterium smegmatis; assay: Minimum inhibitory concentration (MIC) of compound against Mycobacterium smegmatis ATCC 607
[26] = test system: Mycobacterium tuberculosis; assay: Compound was evaluated for the synergistic effect in combination with cycloserine for the inhibition of Mycobacterium tuberculosis H 37 Ra, using Lowenstein-Jensen medium (solid)
[27] = test system: Mycobacterium tuberculosis; assay: Compound was evaluated for the synergistic effect in combination with benzaldehyde thiosemicarbazone for the inhibition of Mycobacterium tuberculosis H 37 Ra, using Lowenstein-Jensen medium (solid)
[28] = test system: Mycobacterium tuberculosis; assay: Compound was evaluated for the synergistic effect in combination with capreomycin for the inhibition of Mycobacterium tuberculosis H 37 Ra, using middlebrook 7H9 medium (liquid)
[29] = test system: Mycobacterium tuberculosis; assay: Fractional inhibitory concentration (FIC) was determined for the compound in combination of Tetracycline hydrochloride
[30] = test system: Mycobacterium tuberculosis; assay: Fractional inhibitory concentration (FIC) was determined for the compound in combination of Isoniazid
[31] = test system: Mycobacterium tuberculosis; assay: Minimum inhibitory concentration (MIC) against Mycobacterium tuberculosis H 37 Ra
[32] = test system: Mycobacterium tuberculosis; assay: Compound was evaluated for the synergistic effect in combination with streptomycin sulfate for the inhibition of Mycobacterium tuberculosis H 37 Ra, using Lowenstein-Jensen medium (solid)
[33] = test system: Mycobacterium tuberculosis; assay: Fractional inhibitory concentration (FIC) was determined for the compound in combination of Dapsone
[34] = test system: Mycobacterium tuberculosis; assay: Compound was evaluated for the synergistic effect in combination with aminosalicylic acid for the inhibition of Mycobacterium tuberculosis H 37 Ra, using middlebrook 7H9 medium (liquid)
[35] = test system: Mycobacterium tuberculosis; assay: Compound was evaluated for the synergistic effect in combination with dapsone for the inhibition of Mycobacterium tuberculosis H 37 Ra, using Lowenstein-Jensen medium (solid)
[36] = test system: Mycobacterium tuberculosis; assay: Compound was evaluated for the synergistic effect in combination with capreomycin for the inhibition of Mycobacterium tuberculosis H 37 Ra, using Lowenstein-Jensen medium (solid)
[37] = test system: Mycobacterium tuberculosis; assay: Compound was evaluated for the synergistic effect in combination with benzaldehyde thiosemicarbazone for the inhibition of Mycobacterium tuberculosis H 37 Ra, using middlebrook 7H9 medium (liquid)
[38] = test system: Mycobacterium tuberculosis; assay: Fractional inhibitory concentration (FIC) was determined for the compound in combination of Cycloserine
[39] = test system: Mycobacterium tuberculosis; assay: Compound was evaluated for the synergistic effect in combination with trimethoprim for the inhibition of Mycobacterium tuberculosis H 37 Ra, using Lowenstein-Jensen medium (solid)

`CNCc1cc(Cl)cc(Cl)c1.Cl` gave an MIC [1] of 0.01 µg/mL, an MIC [2] of 2 µg/mL and an FIC index [3] of 1. It also gave an FIC index [4] of 0.0625, an FIC index [5] of 0.5 and an MIC (Mycobacterium marinum) of 4 µg/mL. For the same compound, the MIC [6] was 0.512 µg/mL, the MIC [7] was 7.68 µg/mL and the FIC index [8] was 0.125. For the same compound, the FIC index [9] was 1, the MIC [10] was 32 µg/mL and the MIC [11] was 3 µg/mL. For the same compound, the MIC [12] was 6.4 µg/mL, the FIC index [13] was 0.25 and the MIC [14] was 0.03 µg/mL. It also gave an MIC [15] of 256 µg/mL, an MIC [16] of 0.025 µg/mL and an MIC [17] of 0.1 µg/mL. For the same compound, the FIC index [18] was 1, the MIC (Mycobacterium lufu) was 4 µg/mL and the MIC [19] was 1 µg/mL. It also gave an MIC (Mycobacterium avium) of 4 µg/mL, an MIC [20] of 32 µg/mL and an MIC [21] of 5 µg/mL. It also gave an MIC [22] of 0.1 µg/mL, an MIC [23] of 1 µg/mL and an FIC index [24] of 0.5. It also gave an MIC [25] of 32 µg/mL, an MIC [26] of 25.6 µg/mL and an MIC [27] of 0.179 µg/mL. For the same compound, the MIC [28] was 0.5 µg/mL, the FIC index [29] was 1 and the FIC index [30] was 1. The MIC [31] was 10.2 µg/mL, the MIC [32] was 7.68 µg/mL and the FIC index [33] was 0.031. The MIC [34] was 0.05 µg/mL, the MIC [35] was 5.12 µg/mL and the MIC [36] was 4.47 µg/mL. It also gave an MIC [37] of 0.1 µg/mL, an FIC index [38] of 1 and an MIC [39] of 179 µg/mL.
